Data as given in patent US9056876B2, “Substituted 1H-pyrazolo[3′,4′,4,5]thieno[2,3-b]pyridin-3-amine analogs as positive allosteric modulators of the muscarinic acetylcholine receptor M4” (VANDERBILT UNIVERSITY, priority 2011, dated 2015).

Target: T1, mAChR M4 (UniProt P08173)
T1 construct: hM1 and hM4 cDNAs were purchased from Missouri S&T cDNA Resource
T1 sequence (P08173 1-479): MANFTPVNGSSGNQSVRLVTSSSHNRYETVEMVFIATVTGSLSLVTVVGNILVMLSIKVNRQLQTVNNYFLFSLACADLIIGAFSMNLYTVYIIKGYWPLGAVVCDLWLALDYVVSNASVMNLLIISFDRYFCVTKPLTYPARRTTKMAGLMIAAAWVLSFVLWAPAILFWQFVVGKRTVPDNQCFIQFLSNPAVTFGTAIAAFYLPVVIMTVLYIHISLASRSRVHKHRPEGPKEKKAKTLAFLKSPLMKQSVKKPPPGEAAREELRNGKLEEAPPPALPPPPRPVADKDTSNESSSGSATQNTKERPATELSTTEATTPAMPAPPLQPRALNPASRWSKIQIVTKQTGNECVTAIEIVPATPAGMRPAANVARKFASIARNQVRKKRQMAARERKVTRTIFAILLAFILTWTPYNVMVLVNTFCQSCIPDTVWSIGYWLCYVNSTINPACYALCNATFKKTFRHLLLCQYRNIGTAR
Experiment: mAChR M4 cell-based functional assay (calcium mobilization, Fluo-4, FDSS)
Settings: for Emax (%)*: % ACh maximum at 30 μM; for pEC50: positive allosteric modulator activity, EC20 acetylcholine response; for pEC50 / EC50: CHO-K1 cells; for EC50: positive allosteric modulator activity: concentration-dependent increase in the EC20 acetylcholine response, >10 μM estimated for low potency (no plateau)
Procedure, shortened: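 Compound responses (11-point, 1:3 series) were followed as calcium fluorescence ratio on FDSS in Gqi5-coupled M4 CHO-K1 cells (human or rat) loaded with Fluo-4. Acetylcholine followed at EC20 (144 s) then EC80 (230 s). EC50/Emax from four-parameter logistic fits of direct, EC20-potentiating or EC80-inhibiting effects.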

SMILES	Emax (%)*	pEC50	EC50
Cc1ccnc2sc3c(NCc4ccccc4)nn(C)c3c12 [Compound 68, N-benzyl-1,8-dimethyl-1H-pyrazolo[3′,4′:4,5]thieno[2,3-b]pyridin-3-amine]	75%	6.24	580 nM
Cc1ccnc2sc3c(NCC4CC4)nn(C)c3c12 [Compound 69, N-(cyclopropylmethyl)-1,8-dimethyl-1H-pyrazolo[3′,4′:4,5]thieno[2,3-b]pyridin-3-amine]	77%	5.89	1300 nM
Cc1ccc2c(n1)sc1c(NC(C)C)nn(C)c12 [Compound 70, N-isopropyl-1,6-dimethyl-1H-pyrazolo[3′,4′:4,5]thieno[2,3-b]pyridin-3-amine]	62%	<5.00	> 10000 nM
Cc1ccnc2sc3c(NCc4ccco4)nn(C)c3c12 [Compound 71, N-(furan-2-ylmethyl)-1,8-dimethyl-1H-pyrazolo[3′,4′:4,5]thieno[2,3-b]pyridin-3-amine]	66%	6.00	1000 nM
COc1ccc(CNc2n[nH]c3c2sc2nc(C)ccc23)cc1 [Compound 72, N-(4-methoxybenzyl)-6-methyl-1H-pyrazolo[3′,4′:4,5]thieno[2,3-b]pyridin-3-amine]	59%	5.74	1800 nM
Cc1cc(C)c2c(n1)sc1c(NC3CCSC3)nn(C)c12 (stereo not drawn) [Compound 73, 1,6,8-trimethyl-N-(tetrahydrothiophen-3-yl)-1H-pyrazolo[3′,4′:4,5]thieno[2,3-b]pyridin-3-amine]	84%	7.06	87 nM
Cc1cc(C)c2c(n1)sc1c(NC3CCN(C)CC3)nn(C)c12 [Compound 74, 1,6,8-trimethyl-N-(1-methylpiperidin-4-yl)-1H-pyrazolo[3′,4′:4,5]thieno[2,3-b]pyridin-3-amine]	52%	5.52	3000 nM
Cc1cc(C)c2c(n1)sc1c(NCc3ccc(S(C)(=O)=O)cc3)nn(C)c12 [Compound 75, 1,6,8-trimethyl-N-(4-(methylsulfonyl)benzyl)-1H-pyrazolo[3′,4′:4,5]thieno[2,3-b]pyridin-3-amine]	73%	6.60	250 nM
Cc1cc(C)c2c(n1)sc1c(NCc3cccnc3)nn(C)c12 [Compound 76, 1,6,8-trimethyl-N-(pyridin-3-ylmethyl)-1H-pyrazolo[3′,4′:4,5]thieno[2,3-b]pyridin-3-amine]	68%	6.66	220 nM
Cc1cc(C)c2c(n1)sc1c(NCc3ccccn3)nn(C)c12 [Compound 77, 1,6,8-trimethyl-N-(pyridin-2-ylmethyl)-1H-pyrazolo[3′,4′:4,5]thieno[2,3-b]pyridin-3-amine]	55%	6.27	540 nM
Cc1cc(C)c2c(n1)sc1c(NCc3ccc(C)o3)nn(C)c12 [Compound 78, 1,6,8-trimethyl-N-((5-methylfuran-2-yl)methyl)-1H-pyrazolo[3′,4′:4,5]thieno[2,3-b]pyridin-3-amine]	84%	7.05	90 nM
Cc1cc(C)c2c(n1)sc1c(NCc3ccc(Cl)o3)nn(C)c12 [Compound 79, N-((5-chlorofuran-2-yl)methyl)-1,6,8-trimethyl-1H-pyrazolo[3′,4′:4,5]thieno[2,3-b]pyridin-3-amine]	80%	6.51	310 nM

Results, then the compound that gave them:

Emax (%)*	pEC50	EC50	SMILES
71%	7.21	62 nM	Cc1cc(C)c2c(n1)sc1c(NCc3ccsc3)nn(C)c12 [Compound 80, 1,6,8-trimethyl-N-(thiophen-3-ylmethyl)-1H-pyrazolo[3′,4′:4,5]thieno[2,3-b]pyridin-3-amine]
77%	7.16	69 nM	Cc1cc(C)c2c(n1)sc1c(NCc3ccoc3)nn(C)c12 [Compound 81, N-(furan-3-ylmethyl)-1,6,8-trimethyl-1H-pyrazolo[3′,4′:4,5]thieno[2,3-b]pyridin-3-amine]
63%	6.41	390 nM	Cc1cc(C)c2c(n1)sc1c(NCc3csc(C)n3)nn(C)c12 [Compound 82, 1,6,8-trimethyl-N-((2-methylthiazol-4-yl)methyl)-1H-pyrazolo[3′,4′:4,5]thieno[2,3-b]pyridin-3-amine]
52%	6.02	960 nM	Cc1cc(C)c2c(n1)sc1c(NCC3CCCO3)nn(C)c12 (stereo not drawn) [Compound 83, 1,6,8-trimethyl-N-((tetrahydrofuran-2-yl)methyl)-1H-pyrazolo[3′,4′:4,5]thieno[2,3-b]pyridin-3-amine]
50%	6.72	190 nM	Cc1cc(C)c2c(n1)sc1c(NCc3cccc4c3OCO4)nn(C)c12 [Compound 84, N-(benzo[d][1,3]dioxol-4-ylmethyl)-1,6,8-trimethyl-1H-pyrazolo[3′,4′:4,5]thieno[2,3-b]pyridin-3-amine]
37%	5.48	3300 nM	Cc1cc(C)c2c(n1)sc1c(NCC3CCCN3C(=O)OC(C)(C)C)nn(C)c12 (stereo not drawn) [Compound 85, tert-butyl 2-(((1,6,8-trimethyl-1H-pyrazolo[3′,4′:4,5]thieno[2,3-b]pyridin-3-yl)amino)methyl)pyrrolidine-1-carboxylate]
40%	5.96	1100 nM	Cc1cc(C)c2c(n1)sc1c(NCC3CCCN3)nn(C)c12 (stereo not drawn) [Compound 86, 1,6,8-trimethyl-N-(pyrrolidin-2-ylmethyl)-1H-pyrazolo[3′,4′:4,5]thieno[2,3-b]pyridin-3-amine]
66%	6.80	160 nM	Cc1cc(C)c2c(n1)sc1c(NCc3ccc4c(c3)OCCO4)nn(C)c12 [Compound 87, N-((2,3-dihydrobenzo[b][1,4]dioxin-6-yl)methyl)-1,6,8-trimethyl-1H-pyrazolo[3′,4′:4,5]thieno[2,3-b]pyridin-3-amine]
67%	5.89	1300 nM	Cc1cc(C)c2c(n1)sc1c(NCc3ccc4[nH]ccc4c3)nn(C)c12 [Compound 88, N-((1H-indo1-5-yl)methyl)-1,6,8-trimethyl-1H-pyrazolo[3′,4′:4,5]thieno[2,3-b]pyridin-3-amine]
51%	<5.00	> 10000 nM	Cc1cc(C)c2c(n1)sc1c(NCc3cc4ccccc4n3C)nn(C)c12 [Compound 89, 1,6,8-trimethyl-N-((1-methyl-1H-indo1-2-yl)methyl)-1H-pyrazolo[3′,4′:4,5]thieno[2,3-b]pyridin-3-amine]
52%	6.60	250 nM	Cc1cc(C)c2c(n1)sc1c(NCc3ccc(C#N)c(F)c3)nn(C)c12 [Compound 90, 2-fluoro-4-(((1,6,8-trimethyl-1H-pyrazolo[3′,4′:4,5]thieno[2,3-b]pyridin-3-yl)amino)methyl)benzonitrile]
57%	6.66	220 nM	Cc1cc(C)c2c(n1)sc1c(NCc3cc(C#N)ccc3F)nn(C)c12 [Compound 91, 4-fluoro-3-(((1,6,8-trimethyl-1H-pyrazolo[3′,4′:4,5]thieno[2,3-b]pyridin-3-yl)amino)methyl)benzonitrile]
